Assay results: the supplement of paper PMC10307832

Assays:
Experiment in all cases: relative viability (nuclei count vs DMSO), 5 days (fraction); higher = more cells survive
[1] = compound: CCN(CCO)CCCC(C)Nc1ccnc2cc(Cl)ccc12 [Hydroxychloroquine] + Cc1nc(Nc2ncc(C(=O)Nc3c(C)cccc3Cl)s2)cc(N2CCN(CCO)CC2)n1 [Dasatinib] (partner 0.075 µM)
Outline: (§1)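 Cells from lung cancer lines were seeded into 1536-well plates and, one day later, dosed by pin tool. Treatments were either a single drug or a fixed dose of an anchor drug with five library-drug doses (not always all listed) in √10 steps. After 5 days, nuclei were stained in a one-step fixation (final 0.05% Triton X-100, 1% formaldehyde, 1 ug/ml Hoechst) and counted on 4× images, and relative viability is the treated-to-vehicle nuclei ratio, as the median of duplicate plates.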

[2] = compound: CCN(CCO)CCCC(C)Nc1ccnc2cc(Cl)ccc12 [Hydroxychloroquine] + Nc1ncn([C@H]2C[C@H](O)[C@@H](CO)O2)c(=O)n1 [Decitabine] (partner 2 µM)
Outline: as §1

[3] = compound: CCN(CCO)CCCC(C)Nc1ccnc2cc(Cl)ccc12 [Hydroxychloroquine] + COc1cc2c(Oc3ccc(NC(=O)C4(C(=O)Nc5ccc(F)cc5)CC4)cc3F)ccnc2cc1OCCCN1CCOCC1 [Foretinib] (partner 0.25 µM)
Outline: as §1

[4] = compound: CCN(CCO)CCCC(C)Nc1ccnc2cc(Cl)ccc12 [Hydroxychloroquine] + CCNC(=O)c1noc(-c2cc(C(C)C)c(O)cc2O)c1-c1ccc(CN2CCOCC2)cc1 [Luminespib] (partner 0.01 µM)
Outline: as §1

Cell Line | relative viability ([1]; first compound 0.5 µM) | relative viability ([1]; first compound 1.581 µM) | relative viability ([1]; first compound 5 µM) | relative viability ([1]; first compound 15.81 µM) | relative viability ([1]; first compound 50 µM) | relative viability ([2]; first compound 0.5 µM) | relative viability ([2]; first compound 1.581 µM) | relative viability ([2]; first compound 5 µM) | relative viability ([2]; first compound 15.81 µM) | relative viability ([2]; first compound 50 µM) | relative viability ([3]; first compound 0.5 µM) | relative viability ([3]; first compound 1.581 µM) | relative viability ([3]; first compound 5 µM) | relative viability ([3]; first compound 15.81 µM) | relative viability ([3]; first compound 50 µM) | relative viability ([4]; first compound 0.5 µM) | relative viability ([4]; first compound 1.581 µM) | relative viability ([4]; first compound 5 µM) | relative viability ([4]; first compound 15.81 µM) | relative viability ([4]; first compound 50 µM)
201T | 0.582 | 0.578 | 0.598 | 0.606 | 0.608 | 0.858 | 0.834 | 0.852 | 0.864 | 0.844 | 1.21 | 1.05 | 1.03 | 1.2 | 1.2 | 0.992 | 1.04 | 1.07 | 1.03 | 1.05
A549 |  |  |  |  |  | 0.264 | 0.208 | 0.267 | 0.196 | 0.391 | 0.953 | 0.905 | 0.951 | 0.952 | 1.11 |  |  |  |  | 
A-427 | 0.748 | 0.67 | 0.774 | 0.649 | 0.796 | 0.539 | 0.551 | 0.585 | 0.509 | 0.479 | 1.05 | 1.09 | 0.974 | 1.15 | 1.16 | 1.22 | 0.84 | 0.917 | 0.929 | 0.869
ABC-1 | 0.543 | 0.644 | 0.521 | 0.562 | 0.565 | 1.15 | 1.1 | 1.09 | 1.35 | 0.906 | 0.761 | 0.984 | 1.18 | 1.25 | 1.28 | 0.495 | 0.47 | 0.668 | 0.564 | 0.785
BEN | 0.273 | 0.332 | 0.316 | 0.267 | 0.331 | 0.764 | 0.649 | 0.64 | 0.75 | 0.636 | 0.647 | 0.634 | 0.588 | 0.567 | 0.577 | 0.382 | 0.331 | 0.309 | 0.311 | 0.33
CAL-12T | 0.573 | 0.399 | 0.352 | 0.351 | 0.404 |  |  |  |  |  | 0.974 | 1.04 | 1.04 | 1.33 | 1.06 | 0.286 | 0.319 | 0.363 | 0.511 | 0.373
COR-L23 | 0.472 | 0.543 | 0.533 | 0.421 | 0.534 | 0.451 | 0.452 | 0.397 | 0.416 | 0.534 | 1.04 | 0.993 | 1.02 | 0.994 | 1.18 | 0.683 | 0.662 | 0.818 | 0.948 | 0.705
COR-L 105 | 0.284 | 0.384 | 0.34 | 0.298 | 0.272 | 0.669 | 0.542 | 0.588 | 0.583 | 0.605 | 0.896 | 1.11 | 0.951 | 1.23 | 0.997 | 0.883 | 0.718 | 0.579 | 0.709 | 0.882
Calu-6 |  |  |  |  |  |  |  |  |  |  | 0.922 | 0.855 | 0.888 | 0.872 | 0.879 |  |  |  |  | 
ChaGo-K-1 | 0.626 | 0.593 | 0.537 | 0.593 | 0.626 | 0.515 | 0.545 | 0.538 | 0.496 | 0.518 | 0.939 | 1.04 | 0.929 | 0.911 | 1.04 | 0.615 | 0.626 | 0.55 | 0.594 | 0.643
EBC-1 |  |  |  |  |  |  |  |  |  |  | 0.122 | 0.093 | 0.0998 | 0.11 | 0.132 |  |  |  |  | 
EKVX | 0.512 | 0.502 | 0.495 | 0.535 | 0.337 | 0.346 | 0.308 | 0.334 | 0.407 | 0.372 | 0.824 | 0.795 | 0.753 | 0.767 | 0.75 | 0.894 | 0.887 | 0.836 | 0.836 | 0.865
EMC-BAC-2 | 0.309 | 0.381 | 0.347 | 0.329 | 0.345 | 1.01 | 0.863 | 0.965 | 0.952 | 0.952 | 0.998 | 0.877 | 1.08 | 0.941 | 0.985 | 1.2 | 1.03 | 1.14 | 1.18 | 1.19
EPLC-272H | 0.342 | 0.441 | 0.333 | 0.335 | 0.347 | 0.319 | 0.403 | 0.403 | 0.321 | 0.372 | 0.776 | 0.673 | 0.709 | 0.703 | 0.799 | 0.188 | 0.388 | 0.264 | 0.289 | 0.33
H3255 | 0.367 | 0.386 | 0.3 | 0.281 | 0.369 | 0.612 | 0.536 | 0.593 | 0.718 | 0.592 | 0.924 | 0.84 | 0.818 | 0.783 | 0.798 | 0.966 | 0.874 | 0.912 | 0.819 | 0.742
HARA | 0.287 | 0.262 | 0.253 | 0.29 | 0.299 | 0.492 | 0.539 | 0.524 | 0.534 | 0.519 | 0.957 | 0.918 | 0.891 | 0.921 | 1.07 | 1.15 | 1.09 | 0.789 | 0.542 | 1.01
HCC-15 | 0.621 | 0.578 | 0.581 | 0.609 | 0.627 | 0.674 | 0.648 | 0.627 | 0.666 | 0.702 | 1.1 | 1.04 | 1.04 | 1.04 | 1.05 | 0.433 | 0.39 | 0.25 | 0.252 | 0.503
HCC-44 |  |  |  |  |  | 0.966 | 0.978 | 0.974 | 0.939 | 0.914 |  |  |  |  |  | 1.12 | 0.93 | 1.19 | 1.19 | 1.23
HCC-78 | 0.529 | 0.421 | 0.495 | 0.374 | 0.375 | 0.655 | 0.638 | 0.651 | 0.676 | 0.73 | 0.602 | 0.498 | 0.482 | 0.488 | 0.553 |  |  |  |  | 
